Reference: publication PMC3130079 (2011)

Target: TRPA1 (Mus musculus, UniProt Q8BLA8)
Assay: Ca2+ imaging and whole-cell patch clamp in TRPA1-transfected CHO cells
Format: cell-based

Sequence of TRPA1 (Q8BLA8 whole entry): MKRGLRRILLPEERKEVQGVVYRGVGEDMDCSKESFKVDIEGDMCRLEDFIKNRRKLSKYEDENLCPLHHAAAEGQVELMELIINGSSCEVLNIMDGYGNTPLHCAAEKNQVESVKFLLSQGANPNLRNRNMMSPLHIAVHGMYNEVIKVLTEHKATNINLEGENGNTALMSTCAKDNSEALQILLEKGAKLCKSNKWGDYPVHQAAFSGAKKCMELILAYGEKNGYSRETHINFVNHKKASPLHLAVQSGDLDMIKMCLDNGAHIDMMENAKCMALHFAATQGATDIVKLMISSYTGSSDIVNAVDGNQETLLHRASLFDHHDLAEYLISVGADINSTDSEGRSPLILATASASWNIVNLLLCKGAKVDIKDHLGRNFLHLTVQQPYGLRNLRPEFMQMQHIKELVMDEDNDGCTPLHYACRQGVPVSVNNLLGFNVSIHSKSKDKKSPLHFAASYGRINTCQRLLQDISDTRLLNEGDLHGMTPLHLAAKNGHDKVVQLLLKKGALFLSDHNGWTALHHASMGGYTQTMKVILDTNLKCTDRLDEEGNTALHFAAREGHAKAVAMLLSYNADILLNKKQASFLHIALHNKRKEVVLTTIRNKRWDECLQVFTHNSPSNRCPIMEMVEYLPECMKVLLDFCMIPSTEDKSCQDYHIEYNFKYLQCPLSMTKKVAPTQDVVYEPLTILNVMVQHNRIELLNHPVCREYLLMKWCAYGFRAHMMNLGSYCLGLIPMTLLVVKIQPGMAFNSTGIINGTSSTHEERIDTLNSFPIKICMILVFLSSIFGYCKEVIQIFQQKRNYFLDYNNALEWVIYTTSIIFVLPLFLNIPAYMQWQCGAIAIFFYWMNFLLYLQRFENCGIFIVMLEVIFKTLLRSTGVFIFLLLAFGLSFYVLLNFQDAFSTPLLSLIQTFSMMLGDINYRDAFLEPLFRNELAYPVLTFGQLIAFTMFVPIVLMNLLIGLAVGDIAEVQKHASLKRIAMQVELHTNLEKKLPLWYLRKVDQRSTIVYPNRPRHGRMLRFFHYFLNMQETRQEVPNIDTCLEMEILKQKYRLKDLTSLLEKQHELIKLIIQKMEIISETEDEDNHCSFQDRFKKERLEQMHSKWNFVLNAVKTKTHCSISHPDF

## COc1ccc(C(=O)c2c(C)n(CCN3CCOCC3)c3cc(I)ccc23)cc1 [AM630]
  EC50: 2000 nM
